81 molecules from patent US9732089B2, “Substituted pyrazolo[1,5-a]pyrimidines and their use in the treatment of medical disorders” (Lysosomal Therapeutics Inc., priority 2014, dated 2017) can be followed below.

Molecules are shown by their SMILES. ≈ marks a conversion by molar mass, not a printed value.

The nature of the data set: Compound solubility in water. Format: physicochemical.
Usually solubility stands for how much of the substance goes into solution per volume. Turning to `Cc1cc(C)n2ncc(C(=O)Nc3ccc(N=[N+]=[N-])cc3)c2n1` [III-38], the solubility was < 1.5 µg/mL. In turn, `C#Cc1ccc(NC(=O)c2cnn3c(C)cc(NC)nc23)cc1` [III-77] showed a solubility of 4.2 µg/mL (≈ 13.8 µM). For `C#C[C@H]1CC[C@H](NC(=O)c2cnn3c(C)cc(C)nc23)CC1` [III-14], the concentration in solution (solubility) was 17.6 µg/mL (≈ 59.4 µM).

With `CO[C@H]1CC[C@@H](C(C)(C)NC(=O)c2cnn3c(C)cc(C)nc23)CC1` [III-72], the solubility came out at 15.1 µg/mL (≈ 43.8 µM). As for `COc1ccccc1[C@@H](C)NC(=O)c1cnn2c(C)cc(C)nc12` [III-62], the solubility is 2.5 µg/mL (≈ 7.71 µM). As for `Cc1cc(C)n2ncc(C(=O)Nc3ccc(Cl)c(-c4cnco4)c3)c2n1` [III-53], the figure is < 0.05 µg/mL; as for `CCCCCOc1ccc(NC(=O)c2cnn3c(C)cc(C)nc23)cc1` [III-32], < 1.5 µg/mL. Consider `Cc1cc(C)n2ncc(C(=O)Nc3ccc(CCCC(=O)O)cc3)c2n1` [III-34], for which the solubility is < 1.5 µg/mL. The figure for `Cc1cc(C)n2ncc(C(=O)N[C@H](C)c3ccc(F)cc3)c2n1` [III-65] is 27.6 µg/mL (≈ 88.4 µM). Take `Cc1cc(C)n2ncc(C(=O)NC3CCCc4ccccc43)c2n1` (stereo not drawn) [III-58]: the solubility amounted to 2.6 µg/mL (≈ 8.11 µM). `Cc1cc(C)n2ncc(C(=O)Nc3ccc(Cl)c(C(C)Oc4cccnc4)c3)c2n1` (stereo not drawn) [III-75] yielded a solubility of 0.1 µg/mL (≈ 0.237 µM). Take `Cc1cc(C)n2ncc(C(=O)Nc3ccc(-c4ccon4)cc3)c2n1` [III-9]: the solubility was < 1.5 µg/mL.

The molecule `Cc1cc(C)n2ncc(C(=O)Nc3ccc4cn[nH]c4c3)c2n1` [III-42] came in with a solubility of 0.4 µg/mL (≈ 1.31 µM).

As for `Cc1cc(C)n2ncc(C(=O)N[C@@H](C)c3cccc(Cl)c3)c2n1` [III-63], the solubility was 11.9 µg/mL (≈ 36.2 µM). For `COCC#Cc1ccc(NCc2cnn3c(C)cc(C)nc23)cc1` [III-29], the concentration in solution (solubility) came to 5.4 µg/mL (≈ 16.9 µM). As for `Cc1cc(C)n2ncc(C(=O)Nc3ccc(-c4cocn4)cc3)c2n1` [III-10], the figure is < 1.5 µg/mL; as for `COc1ccccc1[C@H](C)NC(=O)c1cnn2c(C)cc(C)nc12` [III-61], 1.4 µg/mL (≈ 4.32 µM); as for `Cc1cc(C)n2ncc(C(=O)Nc3ccc(-c4cnn(C)c4)nc3)c2n1` [III-23], < 1.5 µg/mL. With `C#Cc1ccc(NC(=O)c2cnn3c(C)cc(C)nc23)c(OC)c1` [III-8], the solubility was < 1.5 µg/mL. As for `Cc1cc(C)n2ncc(C(=O)Nc3ccc(-c4cccs4)cc3)c2n1` [III-39], the solubility was < 1.5 µg/mL. The molecule `Cc1cc(C)n2ncc(C(=O)Nc3ccc4oc(-c5ccncc5)nc4c3)c2n1` [III-48] yielded a solubility of 0.3 µg/mL (≈ 0.78 µM). Take `Cc1cc(C)n2ncc(C(=O)Nc3ccc(-c4ncc[nH]4)cc3)c2n1` [III-30]: the solubility was < 1.5 µg/mL.

Take `Cc1cc(C)n2ncc(C(=O)Nc3ccc(-c4cocn4)nc3)c2n1` [III-19]: the solubility was determined as 3 µg/mL (≈ 8.97 µM). `Cc1cc(C)n2ncc(C(=O)N[C@H](C)c3ccc(Cl)cc3)c2n1` [III-64] gave a solubility of 0.7 µg/mL (≈ 2.13 µM).

In the case of `Cc1cc(Cl)n2ncc(C(=O)NC(C)(C)c3ccc(Cl)cc3)c2n1` [III-68], the solubility came out at 2.1 µg/mL (≈ 5.78 µM). The molecule `Cc1cc(C)n2ncc(C(=O)Nc3cc(C4(C(F)(F)F)CC4)on3)c2n1` [III-18] yielded a solubility of 2.6 µg/mL (≈ 7.12 µM). For the molecule `Cc1cc(C)n2ncc(C(=O)Nc3ccc(C(C)O)cc3)c2n1` (stereo not drawn) [III-35], the solubility was determined as 10 µg/mL (≈ 32.2 µM).

`Cc1cc(C)n2ncc(C(=O)Nc3ccc4[nH]ncc4c3)c2n1` [III-41] showed a solubility of 0.5 µg/mL (≈ 1.63 µM). `Cc1cc(C)n2ncc(C(=O)NC3CCc4ccccc43)c2n1` (stereo not drawn) [III-79] came in with a solubility of 0.8 µg/mL (≈ 2.61 µM). As to `Cc1cc(C)n2ncc(C(=O)Nc3ccc(-c4cccs4)nc3)c2n1` [III-20], the solubility was < 1.5 µg/mL. On to `CO[C@H]1CC[C@H](C(C)(C)NC(=O)c2cnn3c(C)cc(C)nc23)CC1` [III-71], for which the concentration in solution (solubility) came to 21.4 µg/mL (≈ 62.1 µM). In the case of `Cc1cc(C)n2ncc(C(=O)Nc3ccc(-c4ccco4)nc3)c2n1` [III-22], the solubility was < 1.5 µg/mL. `Cc1cc(C)n2ncc(C(=O)NC(C)(C)c3ccc(Cl)cc3)c2n1` [III-67] returned a solubility of 2.2 µg/mL (≈ 6.42 µM).

With `Cc1cc(C)n2ncc(C(=O)Nc3ccc4[nH]c(C)cc4c3)c2n1` [III-40], the solubility was 0.3 µg/mL (≈ 0.939 µM). `Cc1cc(C)n2ncc(C(=O)Nc3ccc(-c4cnsc4)cc3)c2n1` [III-16]: the solubility was < 1.5 µg/mL. On to `C#Cc1ccc(NC(=O)c2cnn3c(C)cc(C)nc23)cc1` [IV-1], for which the solubility was < 1.5 µg/mL. As for `Cc1ccn2ncc(CNc3ccc(-c4ncco4)cc3)c2n1` [III-26], the figure is 39 µg/mL (≈ 128 µM); as for `Cc1ccn2ncc(CNc3ccc(-c4cocn4)cc3)c2n1` [III-25], 54 µg/mL (≈ 177 µM); as for `Cc1cc(C)n2ncc(C(=O)Nc3cc(-c4ccccc4)on3)c2n1` [III-12], < 1.5 µg/mL.

`C#CCOc1ccc(NC(=O)c2cnn3c(C)cc(C)nc23)cc1` [III-33]: the solubility is < 1.5 µg/mL. For the molecule `COCC#Cc1ccc(NC(=O)c2cnn3c(C)cc(C)nc23)cc1` [III-4], the solubility was < 1.5 µg/mL. The figure for `Cc1cc(C)n2ncc(C(=O)Nc3ccc(-n4ccnc4)cc3)c2n1` [III-6] is < 1.5 µg/mL; for `Cc1cc(C)n2ncc(C(=O)Nc3ccc4oncc4c3)c2n1` [III-47] it is 0.9 µg/mL (≈ 2.93 µM); for `Cc1cc(C)n2ncc(C(=O)Nc3ccc(-c4ccccc4)cc3)c2n1` [III-3] it is < 1.5 µg/mL. The figure for `Cc1cc(C)n2ncc(C(=O)Nc3ccc(-c4ccncc4)nc3)c2n1` [III-21] is < 1.5 µg/mL; for `C#Cc1ccc(NC(=O)c2cnn3c(C)cc(C)nc23)nc1` [III-1] it is < 1.5 µg/mL; for `C#C[C@H]1CC[C@@H](NC(=O)c2cnn3c(C)cc(C)nc23)CC1` [III-15] it is 8 µg/mL (≈ 27 µM).

In the case of `Cc1cc(C)n2ncc(CNc3ccc(-c4cocn4)nc3)c2n1` [III-24], the solubility was > 64 µg/mL. Consider `Cc1cc(C)n2ncc(C(=O)NC(C)C3CCC(F)(F)CC3)c2n1` (stereo not drawn) [III-66], for which the solubility came out at 20.6 µg/mL (≈ 61.2 µM). Regarding `C#Cc1ccc(NC(=O)c2cnn3c(NC)cc(C)nc23)cc1` [III-78], the solubility was < 1.5 µg/mL. For the molecule `Cc1cc(C)n2ncc(C(=O)Nc3ccc4nc(C)oc4c3)c2n1` [III-44], the solubility stood at 0.3 µg/mL (≈ 0.934 µM). `Cc1cc(C)n2ncc(C(=O)Nc3ccc(-c4ccncc4)cc3)c2n1` [III-56]: the solubility is < 1.5 µg/mL. As to `Cc1cc(C)n2ncc(C(=O)Nc3ccc(-c4cc[nH]n4)cc3)c2n1` [III-31], the concentration in solution (solubility) was 33 µg/mL (≈ 99.3 µM).

`C#Cc1ccc(NCc2cnn3c(C)cc(C)cc23)cc1` [III-74] came in with a solubility of 0.2 µg/mL (≈ 0.726 µM). The figure for `Cc1cc(C)n2ncc(CNc3ccc(-c4cocn4)cc3)c2n1` [III-37] is 26.1 µg/mL (≈ 81.7 µM).

In the case of `Cc1cc(C)n2ncc(C(=O)Nc3ccc(Cl)c(COc4cccnc4)c3)c2n1` [III-51], the concentration in solution (solubility) was 0.06 µg/mL (≈ 0.147 µM). As to `Cc1cc(C)n2ncc(C(=O)Nc3ccc(-c4nccs4)cc3)c2n1` [III-7], the solubility was < 1.5 µg/mL. As for `Cc1cc(C)n2ncc(C(=O)Nc3ccc4c(c3)C(C3=NCCN3)CCC4)c2n1` (stereo not drawn) [III-73], the figure is 34 µg/mL (≈ 87.5 µM); as for `Cc1cc(C)n2ncc(C(=O)Nc3ccc(-c4cscn4)cc3)c2n1` [III-27], < 1.5 µg/mL. For the molecule `Cc1cc(C)n2ncc(C(=O)Nc3ccc(Oc4ccccc4)cc3)c2n1` [III-5], the solubility was < 1.5 µg/mL. As for `Cc1cc(C)n2ncc(C(=O)Nc3ccc(-c4cnn(C)c4)cc3)c2n1` [III-54], the figure is 2.1 µg/mL (≈ 6.06 µM); as for `Cc1cc(Cl)nc2c(C(=O)NC(C)(C)c3ccc(Cl)cc3)cnn12` [III-69], 5.1 µg/mL (≈ 14 µM); as for `Cc1cc(C)n2ncc(C(=O)N[C@@H](C)c3ccccc3F)c2n1` [III-60], 7.2 µg/mL (≈ 23.1 µM). Consider `Cc1cc(C)n2ncc(C(=O)Nc3ccc4c(c3)OCO4)c2n1` [IV-4], for which the concentration in solution (solubility) came to 0.6 µg/mL (≈ 1.93 µM). With `Cc1cc(C)n2ncc(C(=O)Nc3ccc(-c4ccco4)cc3)c2n1` [III-55], the solubility was < 1.5 µg/mL.

`Cc1cc(C)n2ncc(C(=O)NC(C)(C)c3ccc(F)cc3F)c2n1` [III-70] had a solubility of 2 µg/mL (≈ 5.81 µM). As for `Cc1cc(C)n2ncc(C(=O)Nc3ccc(-c4ncco4)cc3)c2n1` [III-11], the figure is < 1.5 µg/mL; as for `Cc1cc(C)n2ncc(C(=O)Nc3ccc4c(c3)CCNC4)c2n1` [III-46], 33.4 µg/mL (≈ 104 µM); as for `C#Cc1ccc(NC(=O)c2cnn3c(C)cc(C)nc23)cn1` [III-2], < 1.5 µg/mL. With `Cc1cc(C)n2ncc(C(=O)Nc3nc4ccccc4[nH]3)c2n1` [III-28], the solubility is < 1.5 µg/mL.

`Cc1cc(C)n2ncc(C(=O)Nc3ccc4c(c3)CCC4)c2n1` [IV-5] showed a solubility of 0.5 µg/mL (≈ 1.63 µM).

For `Cc1cc(C)n2ncc(C(=O)Nc3ccc(N4CCCCC4)cc3)c2n1` [IV-3], the solubility is < 1.5 µg/mL. In the case of `Cc1cc(C)n2ncc(C(=O)Nc3ccc(C#CCN(C)C)cc3)c2n1` [IV-2], the solubility came to 5.1 µg/mL (≈ 14.7 µM). In the case of `C#CC1CCC(NC(=O)c2cnn3c(C)cc(C)nc23)CC1` (stereo not drawn) [III-13], the concentration in solution (solubility) was 26 µg/mL (≈ 87.7 µM). `Cc1cc(C)n2ncc(C(=O)Nc3ccc4[nH]c(-c5ccco5)nc4c3)c2n1` [III-49] showed a solubility of 0.4 µg/mL (≈ 1.07 µM). `Cc1cc(C)n2ncc(C(=O)Nc3ccc(C)c(-c4ncco4)c3)c2n1` [III-52] yielded a solubility of 0.05 µg/mL (≈ 0.144 µM). On to `Cc1cc(C)n2ncc(C(=O)Nc3ccc4nc(C)sc4c3)c2n1` [III-50], for which the solubility amounted to 2.3 µg/mL (≈ 6.82 µM).

Consider `Cc1cc(C)n2ncc(C(=O)Nc3ccc4nc(C)[nH]c4c3)c2n1` [III-45], for which the solubility came out at 1.2 µg/mL (≈ 3.75 µM). The figure for `Cc1cc(C)n2ncc(C(=O)Nc3ccc(CCC(=O)O)cc3)c2n1` [III-36] is 59.6 µg/mL (≈ 176 µM).

As for `CCCCCO[C@H]1CC[C@H](NC(=O)c2cnn3c(C)cc(C)nc23)CC1` [III-59], the concentration in solution (solubility) came to 7.1 µg/mL (≈ 19.8 µM). Regarding `Cc1cc(C)n2ncc(C(=O)Nc3ccc(-c4cnoc4)cc3)c2n1` [III-17], the solubility is < 1.5 µg/mL.
